# From ChEMBL document CHEMBL4390668, “Discovery and Structural Optimization of Acridones as Broad-Spectrum Antimalarials” (J Med Chem, 2019)
# Active and inactive are the calls of the source. The calls are words filed in the database; no cut-off is given here.
# How the values were obtained:
# [1] = Mutagenicity in Salmonella typhimurium TA100 assessed as increase in revertant colonies up to 10 uM in absence of S9 fraction by Ames test; format: toxicity; settings: salmonella enterica subsp. enterica serovar typhimurium
# [2] = tested on: Plasmodium falciparum; experiment: Inhibition of Plasmodium falciparum cytochrome b-c1
# [3] = tested on: Plasmodium falciparum; experiment: Antimalarial activity against multidrug-resistant Plasmodium falciparum Dd2 infected in human erythrocytes by SYBR green 1-based fluorescence assay; format: functional, organism-based
# [4] = tested on: Plasmodium falciparum; experiment: Ratio of IC50 for drug-resistant Plasmodium falciparum Dd2 harboring M133I mutant infected in human erythrocytes to IC50 for multidrug-resistant Plasmodium falciparum Dd2 infected in human erythrocytes; format: functional
# [5] = tested on: Plasmodium falciparum; experiment: Antimalarial activity against drug-resistant Plasmodium falciparum Dd2 harboring M133I mutant infected in human erythrocytes after 72 hrs by SYBR green 1-based fluorescence assay; format: functional, organism-based; settings: Dd2, 72 h
# [6] = molecular target: hERG (KCNH2) (Homo sapiens, UniProt Q12809); experiment: Inhibition of human ERG expressed in CHOK1 cells at 10 uM by automated patch clamp method relative to control; format: cell-based; settings: CHO-K1 cells that express hERG
# Chain of hERG (KCNH2) (Q12809 whole entry): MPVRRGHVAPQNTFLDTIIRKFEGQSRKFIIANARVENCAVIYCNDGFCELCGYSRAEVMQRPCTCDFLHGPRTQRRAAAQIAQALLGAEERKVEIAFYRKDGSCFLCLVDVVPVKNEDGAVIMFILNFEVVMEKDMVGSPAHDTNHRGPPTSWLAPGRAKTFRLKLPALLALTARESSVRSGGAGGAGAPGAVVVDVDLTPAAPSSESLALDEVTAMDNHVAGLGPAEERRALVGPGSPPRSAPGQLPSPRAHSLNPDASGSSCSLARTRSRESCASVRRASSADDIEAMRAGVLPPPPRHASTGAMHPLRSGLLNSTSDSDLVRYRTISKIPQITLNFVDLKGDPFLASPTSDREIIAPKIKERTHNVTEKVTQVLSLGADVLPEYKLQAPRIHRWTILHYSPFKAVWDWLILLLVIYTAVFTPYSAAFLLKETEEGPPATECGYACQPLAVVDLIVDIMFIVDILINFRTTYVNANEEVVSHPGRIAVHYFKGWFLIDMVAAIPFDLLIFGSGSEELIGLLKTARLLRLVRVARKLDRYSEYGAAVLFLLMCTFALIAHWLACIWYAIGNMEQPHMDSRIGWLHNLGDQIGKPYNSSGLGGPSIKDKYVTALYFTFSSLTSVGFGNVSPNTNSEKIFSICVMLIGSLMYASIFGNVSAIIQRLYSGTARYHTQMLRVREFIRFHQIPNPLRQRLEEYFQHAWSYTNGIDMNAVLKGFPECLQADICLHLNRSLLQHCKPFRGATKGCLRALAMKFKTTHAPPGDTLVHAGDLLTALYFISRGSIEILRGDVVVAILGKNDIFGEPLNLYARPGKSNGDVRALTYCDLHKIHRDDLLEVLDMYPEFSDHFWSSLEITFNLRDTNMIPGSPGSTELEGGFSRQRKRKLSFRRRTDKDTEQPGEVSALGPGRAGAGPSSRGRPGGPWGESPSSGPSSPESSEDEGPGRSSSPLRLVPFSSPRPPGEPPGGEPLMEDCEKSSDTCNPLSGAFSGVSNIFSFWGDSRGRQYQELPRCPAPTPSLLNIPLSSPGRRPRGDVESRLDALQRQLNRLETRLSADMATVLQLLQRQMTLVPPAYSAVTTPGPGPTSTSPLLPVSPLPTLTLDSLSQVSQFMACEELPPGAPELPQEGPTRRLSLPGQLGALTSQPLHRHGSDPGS
# [7] = tested on: Plasmodium berghei; experiment: Antimalarial activity against luciferase-expressing Plasmodium berghei ANKA 676m1cl1 sporozoites infected in human HepG2A16 cells measured after 45 hrs by luciferase-luciferin based reporter assay; format: functional, organism-based; settings: ANKA 676m1cl1, HepG2A16, 45 h
# [8] = tested on: Plasmodium berghei; experiment: (§1) Antimalarial activity against liver stage luciferase-expressing Plasmodium berghei ANKA 676m1cl1 sporozoites infected in C57BL/6 mouse assessed as suppression of parasitemia at 40 to 160 mg/kg, po pretreated for 1 day followed by parasite infection and subsequent compound dosing for 2 days measured at 24 to 48 hrs post-infection by luciferin-based real-time imaging analysis; format: functional
# [9] = tested on: Plasmodium falciparum; experiment: Ratio of IC50 for drug-resistant Plasmodium falciparum Dd2 harboring M133I/A138T double mutant infected in human erythrocytes to IC50 for multidrug-resistant Plasmodium falciparum Dd2 infected in human erythrocytes; format: functional
# [10] = Mutagenicity in Salmonella typhimurium TA98 assessed as increase in revertant colonies up to 10 uM in absence of S9 fraction by Ames test; format: toxicity; settings: salmonella enterica subsp. enterica serovar typhimurium
# [11] = tested on: Plasmodium falciparum; experiment: Antimalarial activity against chloroquine-sensitive Plasmodium falciparum D6 infected in human erythrocytes by SYBR green 1-based fluorescence assay; format: functional, organism-based
# [12] = tested on: Plasmodium falciparum; experiment: Antimalarial activity against drug-resistant Plasmodium falciparum Dd2 harboring M133I/A138T double mutant infected in human erythrocytes after 72 hrs by SYBR green 1-based fluorescence assay; format: functional, organism-based; settings: Dd2, 72 h
# [13] = tested on: Plasmodium falciparum; experiment: Ratio of IC50 for drug-resistant Plasmodium falciparum 3D7 harboring A82T/V259L double mutant infected in human erythrocytes to IC50 for Plasmodium falciparum 3D7 infected in human erythrocytes; format: functional
# [14] = tested on: Plasmodium falciparum; experiment: Antimalarial activity against multidrug-resistant Plasmodium falciparum 7G8 infected in human erythrocytes by SYBR green 1-based fluorescence assay; format: functional, organism-based
# [15] = tested on: Plasmodium falciparum; experiment: Antimalarial activity against atovaquone-resistant Plasmodium falciparum Tm90-C2B infected in human erythrocytes by SYBR green 1-based fluorescence assay; format: functional, organism-based
# [16] = Half life in mouse liver microsomes at 1 uM by LC-MS analysis; format: ADME, Microsome
# [17] = Mutagenicity in Salmonella typhimurium TA100 assessed as increase in revertant colonies up to 10 uM in presence of S9 fraction by Ames test; format: toxicity, subcellular; settings: salmonella enterica subsp. enterica serovar typhimurium
# [18] = Mutagenicity in Salmonella typhimurium TA98 assessed as increase in revertant colonies up to 10 uM in presence of S9 fraction by Ames test; format: toxicity, subcellular; settings: salmonella enterica subsp. enterica serovar typhimurium
# [19] = tested on: Plasmodium falciparum; experiment: Ratio of IC50 for drug-resistant Plasmodium falciparum Dd2 harboring V259L mutant infected in human erythrocytes to IC50 for multidrug-resistant Plasmodium falciparum Dd2 infected in human erythrocytes; format: functional
# [20] = tested on: HepG2; experiment: Cytotoxicity against human HepG2 cells measured after 24 to 36 hrs by resazurin dye based fluorescence assay; format: cell-based
# [21] = tested on: Plasmodium falciparum; experiment: Antimalarial activity against Plasmodium falciparum 3D7 infected in human erythrocytes after 72 hrs by SYBR green 1-based fluorescence assay; format: functional, organism-based; settings: 3D7, 72 h
# [22] = Selectivity index, ratio of IC50 for human HepG2 cells to IC50 for chloroquine-sensitive Plasmodium falciparum D6 infected in human erythrocytes; format: toxicity, cell-based; settings: read-out: Ratio IC50
# [23] = tested on: Plasmodium falciparum; experiment: Antimalarial activity against drug-resistant Plasmodium falciparum 3D7 harboring A82T/V259L double mutant infected in human erythrocytes after 72 hrs by SYBR green 1-based fluorescence assay; format: functional, organism-based; settings: 3D7, 72 h
# [24] = tested on: Plasmodium falciparum; experiment: Antimalarial activity against drug-resistant Plasmodium falciparum Dd2 harboring V259L mutant infected in human erythrocytes after 72 hrs by SYBR green 1-based fluorescence assay; format: functional, organism-based; settings: Dd2, 72 h
# [25] = tested on: Plasmodium yoelii; experiment: Antimalarial activity against blood stage Plasmodium yoelii MR4 MRA-428 infected in CF1 mouse assessed as suppression of parasitemia administered once daily via oral gavage for 4 days starting from 24 hrs post-infection and measured post-last dose by Giemsa-staining based microscopic analysis; format: functional
# [26] = Half life in human liver microsomes at 1 uM by LC-MS analysis; format: ADME, Microsome
# [27] = Mean residence time in ICR mouse liver at 80 mg/kg, po administered as single dose; format: ADME, organism-based
# [28] = Tmax in ICR mouse liver at 80 mg/kg, po administered as single dose; format: ADME, organism-based
# [29] = Cmax in ICR mouse plasma at 80 mg/kg, po administered as single dose; format: ADME, organism-based; parameters: dose 80 mg/kg, route oral; settings: ICR, plasma, read-out: Cmax
# [30] = Mean residence time in ICR mouse plasma at 80 mg/kg, po administered as single dose; format: ADME, organism-based
# [31] = Cmax in ICR mouse liver at 80 mg/kg, po administered as single dose; format: ADME, organism-based; parameters: dose 80 mg/kg, route oral
# [32] = AUC (0 to infinity) in ICR mouse plasma at 80 mg/kg, po administered as single dose; format: ADME, organism-based; parameters: dose 80 mg/kg, route oral, time infinity; settings: in vivo
# [33] = AUC (0 to infinity) in ICR mouse liver at 80 mg/kg, po administered as single dose; format: ADME, organism-based; parameters: dose 80 mg/kg, route oral, time infinity
# [34] = tested on: Plasmodium berghei; experiment: as §1, with “blood” for “liver”, “25” for “40 to 160”, “up” for “at 24”, “30 days” for “48 hrs”, “YOYO1 staining based flow cytometry” for “luciferin-based real-time imaging analysis”; format: functional
# [35] = Apparent volume of distribution in ICR mouse liver at 80 mg/kg, po administered as single dose; format: ADME, organism-based; settings: in vivo
# [36] = AUC (0 to last) in ICR mouse plasma at 80 mg/kg, po administered as single dose; format: ADME, organism-based; parameters: dose 80 mg/kg, route oral, time 0 - last
# [37] = Apparent volume of distribution in ICR mouse plasma at 80 mg/kg, po administered as single dose; format: ADME, organism-based; settings: in vivo
# [38] = AUC (0 to last) in ICR mouse liver at 80 mg/kg, po administered as single dose; format: ADME, organism-based; parameters: dose 80 mg/kg, route oral, time 0 - last
# [39] = Tmax in ICR mouse plasma at 80 mg/kg, po administered as single dose; format: ADME, organism-based; settings: ICR, plasma, read-out: Tmax
smiles,measurement,setting,value
CCN(CC)CCOc1ccc2c(=O)c3c(Cl)c(Cl)ccc3[nH]c2c1,Activity,[1],Non-Toxic
same,inhibition,[2],inactive
same,IC50,[3],12 to 40 nM
same,Ratio IC50,[4],6
same,IC50,[5],242 nM
same,inhibition at 10 µM,[6],78%
same,IC50,[7],5.5 nM
same,Activity,[8],100%
same,Ratio IC50,[9],42
same,Activity,[10],Non-Toxic
same,IC50,[11],10 nM
same,IC50,[12],1680 nM
same,Ratio IC50,[13],54
same,IC50,[14],17 nM
same,IC50,[15],1260 nM
same,half-life at 1 µM,[16],50 min
same,Activity,[17],Non-Toxic
same,Activity,[18],Non-Toxic
same,Ratio IC50,[19],36
same,IC50,[20],14400 nM
same,IC50,[21],28 nM
same,selectivity ratio,[22],1440
same,IC50,[23],1520 nM
same,IC50,[24],1440 nM
same,ED50,[25],1.8 mg/kg.day
same,ED90,[25],8.8 mg/kg.day
same,half-life at 1 µM,[26],> 60 min
COc1cc(NC(C)CCCN)c2ncccc2c1 (stereo not given) [PRIMAQUINE],MRT,[27],270 min
same,Tmax,[28],30 min
same,Cmax,[29],531 ng/mL
same,MRT,[30],138 min
same,Cmax,[31],8150 ng/mL
same,AUC,[32],1314 ng·h/mL
same,AUC(0-inf),[33],27700 ng·h/mL
same,Activity,[34],100%
same,Vz,[35],4.418 L/kg
same,AUC(0-t),[36],1260 ng·h/mL
same,Vz,[37],43.801 L/kg
same,AUC(0-t),[38],27400 ng·h/mL
same,Tmax,[39],30 min
